Laboratory results as given in US20220315572A1, “SUBSTITUTED CYANOPYRROLIDINES WITH ACTIVITY AS USP30 INHIBITORS” (MISSION THERAPEUTICS LIMITED, priority 2019, published 2022).

Legend:
[1] = biological target: T1, Cathepsin K (Homo sapiens, UniProt P43235); experiment: Cathepsin IC50, cathepsin K; format: biochemical
T1 sequence (P43235 115-329): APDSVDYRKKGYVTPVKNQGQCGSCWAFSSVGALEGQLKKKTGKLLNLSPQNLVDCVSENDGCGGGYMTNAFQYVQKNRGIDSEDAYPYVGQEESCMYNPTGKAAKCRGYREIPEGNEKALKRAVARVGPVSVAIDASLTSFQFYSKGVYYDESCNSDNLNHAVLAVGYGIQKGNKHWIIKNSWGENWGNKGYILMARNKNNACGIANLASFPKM

[2] = system: HCT116 human colorectal carcinoma cells; experiment: In vitro cytotoxicity (Cell Tox), alamarBlue; format: cell-based; conditions: for EC50: Homo sapiens, HCT-116, 96-hour continual compound exposure, alamarBlue
Description: There is also a need for compounds that have a favourable safety profile, which may be measured by a variety of standard in vitro and in vivo methods. A cell toxicity counter-screen may be used to assay the anti-proliferative/cytotoxic effect in a particular cell line (e.g. HCT116) by fluorometric detection of rezasurin (alamarBlue) to resofurin in response to mitochondrial activity.
In Vitro Cytotoxicity (Cell Tox): Measured in HCT116 human colorectal carcinoma cells using alamarBlue as the assay endpoint. Compound cytotoxicity was measured over a period of 96-hour continual compound exposure.

[3] = biological target: Cathepsin B (Homo sapiens, UniProt P07858); experiment: Cathepsin IC50, cathepsin B; format: biochemical
[4] = biological target: T2, Endogenous USP30 (Homo sapiens, UniProt Q70CQ3); experiment: USP30 endogenous cellular target engagement western blot assay (Cell TE WB); format: cell-based; conditions: Hela cells stably overexpressing YFP-Parkin, 1 hour
T2 construct: USP30 endogenous cellular target engagement western blot (WB) assay; endogenous in cells; host or cells: HeLa stably overexpressing YFP-Parkin
T2 sequence (Q70CQ3 1-517): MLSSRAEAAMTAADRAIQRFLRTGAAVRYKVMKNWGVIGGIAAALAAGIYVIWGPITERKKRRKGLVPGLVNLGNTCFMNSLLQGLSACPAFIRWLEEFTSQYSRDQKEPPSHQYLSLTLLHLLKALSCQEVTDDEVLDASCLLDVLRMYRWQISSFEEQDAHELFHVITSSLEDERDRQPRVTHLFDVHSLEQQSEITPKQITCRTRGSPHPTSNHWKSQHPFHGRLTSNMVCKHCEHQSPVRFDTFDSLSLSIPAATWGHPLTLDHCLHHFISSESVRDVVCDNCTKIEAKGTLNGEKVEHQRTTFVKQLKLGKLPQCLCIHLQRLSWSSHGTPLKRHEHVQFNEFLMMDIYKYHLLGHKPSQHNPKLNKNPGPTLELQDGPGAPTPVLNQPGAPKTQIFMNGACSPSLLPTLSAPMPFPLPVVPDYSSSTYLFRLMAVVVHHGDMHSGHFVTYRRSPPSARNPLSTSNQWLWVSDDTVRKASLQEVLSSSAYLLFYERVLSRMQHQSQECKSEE
Protocol: Hela cells stably overexpressing YFP-Parkin were seeded into 6 well dishes. Once adhered, cells were treated with appropriate concentrations of test compounds or vehicle control for 1 hour at 37° C., 5% CO2. Whole cell lysates were prepared by scraping the cells into cold PBS, centrifuging and lysing in lysis buffer (50 mM Tris-base, pH 7.5, 50 mM NaCl, 1% NP-40/Igepal CA-630, 2 mM MgCl2, 10% Glycerol, 5 mM beta-mercaptoethanol, cOmplete mini tablets EDTA free (Roche), PhosStop tablets (Roche)) for 10 mins. The equivalent of 20 μg of protein from the cleared cell lysate was incubated with a final conc of 2.5 μM HA-Ahx-Ahx-Ub-VME probe at room temperature. The reaction was stopped by addition of 5×SDS sample loading buffer and proteins separated by SDS PAGE and western blotting. USP30 was detected using an anti-USP30 Sheep S746D antibody (MRC PPU Reagents and Services) and a rabbit anti sheep secondary IgG (H+L) horseradish peroxidase conjugated (Thermo #31480) and visualised using ECL reagent (GE #RPN2109) on a GE LAS4000 imager. Target engagement was measured by quantitation of the bands corresponding to USP30 and USP30 bound to the Ub-VME probe and expression of this proportion compared to vehicle treated control.
Cell TE WB: USP30 endogenous cellular target engagement western blot (WB) assay. Assays the activity of compounds against USP30 in cells using an irreversible activity probe to monitor USP30 activity.

[5] = biological target: Cathepsin L (Homo sapiens, UniProt P07711); experiment: Cathepsin IC50, cathepsin L; format: biochemical
Cathepsin L, sequence (P07711 114-333, species assumed): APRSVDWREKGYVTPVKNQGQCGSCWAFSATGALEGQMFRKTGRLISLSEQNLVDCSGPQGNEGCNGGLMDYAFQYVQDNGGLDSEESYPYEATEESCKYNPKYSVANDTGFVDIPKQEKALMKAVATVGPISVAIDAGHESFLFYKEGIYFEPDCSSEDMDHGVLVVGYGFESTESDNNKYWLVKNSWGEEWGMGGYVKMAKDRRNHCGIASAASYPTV

[6] = system: Cathepsins B, K, L, S, V; experiment: Cathepsin IC50, range over B, K, L, S, V; format: biochemical; conditions: for Selectivity preference for USP30 v cathepsins: range over cathepsins B, K, L, S; for IC50: range over the five cathepsins
[7] = biological target: Cathepsin S (Homo sapiens, UniProt P25774); experiment: Cathepsin IC50, cathepsin S; format: biochemical
Cathepsin S, sequence (P25774 115-331, species assumed): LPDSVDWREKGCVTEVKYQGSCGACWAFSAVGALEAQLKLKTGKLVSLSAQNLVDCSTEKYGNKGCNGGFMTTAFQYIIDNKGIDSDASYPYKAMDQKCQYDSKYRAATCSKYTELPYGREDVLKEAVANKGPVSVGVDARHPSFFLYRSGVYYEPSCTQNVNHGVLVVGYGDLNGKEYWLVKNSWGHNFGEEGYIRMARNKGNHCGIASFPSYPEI

For C[C@@H]1C[C@@H](NC(=O)c2nnc(-c3cccc(C#N)c3)o2)CN1C#N [Example 1, N-((3R,5R)-1-Cyano-5-methylpyrrolidin-3-yl)-5-(3-cyanophenyl)-1,3,4-oxadiazole-2-carboxamide], the IC50 [1] was 26.2 µM, the “Cell Tox EC50/USP30 IC50” value [2] was over 1000 and the EC50 [2] was over 30 µM. For the same molecule, the IC50 [3] was 154 µM, the EC50 [4] was 64 nM and the IC50 [5] was 30.9 µM. The “fold more selective for USP30 over cathepsin L than A” value ([5]; v Reference Example A) was 27 fold, the “fold more selective for USP30 over cathepsin L than B” value ([5]; v Reference Example B) was 59 fold and the “fold more selective for USP30 over cathepsin L than C” value ([5]; v Reference Example C) was 18 fold. For the same molecule, the “fold more selective for USP30 over cathepsin L than D” value ([5]; v Reference Example D) was 19 fold, the “fold more selective for USP30 over cathepsin L than E” value ([5]; v Reference Example E) was 333 fold and the “fold more selective for USP30 over cathepsin L than F” value ([5]; v Reference Example F) was 3135 fold. The “Selectivity preference for USP30 v cathepsins” value [6] was 900-10300, the IC50 [6] was 26.2 to 300 µM and the IC50 [7] was over 300 µM.
In the case of N#Cc1cccc(-c2nnc(C(=O)N[C@@H]3C[C@@H](CF)N(C#N)C3)o2)c1 [Example 3, N-((3R,5S)-1-Cyano-5-(fluoromethyl)pyrrolidin-3-yl)-5-(3-cyanophenyl)-1,3,4-oxadiazole-2-carboxamide], the IC50 [1] is reported as 18.8 µM, the “Cell Tox EC50/USP30 IC50” value [2] is reported as over 2300 and the EC50 [2] is reported as over 30 µM. The IC50 [3] was 29.4 µM, the EC50 [4] was 37 nM and the IC50 [5] was 9.9 µM. For the same molecule, the “Selectivity preference for USP30 v cathepsins” value [6] was 760-19700, the IC50 [6] was 9.9 to 256 µM and the IC50 [7] was 256 µM.
